Values belong to the molecule of their own block, whether it stands above or below them.
How the values were obtained:
[1] = Partition coefficient; Kp = concentration of test compound in n-octanol/concentration of the test compound in phosphate buffer (pH 7.4); type: physicochemical
Cavia porcellus = organism: Cavia porcellus; experiment: Calcium channel antagonist activity against carbachol-induced contractile response in guinea pig ileal longitudinal smooth muscle; type: functional
Mus musculus [2] = experiment: Anticonvulsant activity in the subcutaneous metrazole (scMet) screen test expressed as the number of animals protected to the number of animals tested; scMet at 100 mg/kg after 0.5 hrs; (1/1); type: functional
Mus musculus [3] = experiment: Anticonvulsant activity in the subcutaneous metrazole (scMet) screen test expressed as the number of animals protected to the number of animals tested; scMet at 100 mg/kg after 4 hrs; (0/1); type: functional
Mus musculus [4] = experiment: Anticonvulsant activity in the maximal electroshock (MES) screen test expressed as the number of animals protected to the number of animals tested; MES at 100 mg/kg after 0.5 hrs; (2/2); type: functional
Mus musculus [5] = experiment: Anticonvulsant activity in the subcutaneous metrazole (scMet) screen test expressed as the number of animals protected the number of animals tested; scMet at 100 mg/kg after 0.5 hrs; (0/1); type: functional
Mus musculus [6] = experiment: Anticonvulsant activity in the subcutaneous metrazole (scMet) screen test expressed as the number of animals protected the number of animals tested; scMet at 100 mg/kg after 4 hrs; (0/1); type: functional
Mus musculus [7] = experiment: Anticonvulsant activity in the subcutaneous metrazole (scMet) screen test expressed as the number of animals protected the number of animals tested; scMet at 300 mg/kg after 0.5 hrs; (0/1); type: functional
Mus musculus [8] = experiment: Anticonvulsant activity in the subcutaneous metrazole (scMet) screen test expressed as the number of animals protected the number of animals tested; scMet at 300 mg/kg after 4 hrs; (0/1); type: functional
Mus musculus [9] = experiment: Anticonvulsant activity in the maximal electroshock (MES) screen test expressed as the number of animals protected the number of animals tested; MES at 100 mg/kg after 0.5 hrs; (0/3); type: functional
Mus musculus [10] = experiment: Anticonvulsant activity in the maximal electroshock (MES) screen test expressed as the number of animals protected the number of animals tested; MES at 100 mg/kg after 4 hrs; (1/3); type: functional
Mus musculus [11] = experiment: Anticonvulsant activity in the maximal electroshock (MES) screen test expressed as the number of animals protected the number of animals tested; MES at 300 mg/kg after 0.5 hrs; (0/1); type: functional
Mus musculus [12] = experiment: Anticonvulsant activity in the maximal electroshock (MES) screen test expressed as the number of animals protected the number of animals tested; MES at 300 mg/kg after 4 hrs; (1/1); type: functional
Mus musculus [13] = experiment: Anticonvulsant activity in the subcutaneous metrazole (scMet) screen test expressed as the number of animals protected/ the number of animals tested; scMet at 300 mg/kg after 0.5 hrs; (0/1); type: functional
Mus musculus [14] = experiment: Anticonvulsant activity in the maximal electroshock (MES) screen test expressed as the number of animals protected / the number of animals tested; MES at 100 mg/kg after 0.5 hrs; (2/3); type: functional
Mus musculus [15] = experiment: Anticonvulsant activity in the maximal electroshock (MES) screen test expressed as the number of animals protected / the number of animals tested; MES at 100 mg/kg after 4 hrs; (2/3); type: functional
Mus musculus [16] = experiment: Anticonvulsant activity in the maximal electroshock (MES) screen test expressed as the number of animals protected / the number of animals tested; MES at 300 mg/kg after 0.5 hrs; (1/1); type: functional
Mus musculus [17] = experiment: Anticonvulsant activity in the subcutaneous metrazole (scMet) screen test expressed as the number of animals protected / the number of animals tested; scMet at 100 mg/kg after 0.5 hrs; (0/1); type: functional
Mus musculus [18] = experiment: Anticonvulsant activity in the subcutaneous metrazole (scMet) screen test expressed as the number of animals protected / the number of animals tested; scMet at 100 mg/kg after 4 hrs; (0/1); type: functional
Mus musculus [19] = experiment: Anticonvulsant activity in the subcutaneous metrazole (scMet) screen test expressed as the number of animals protected to the number of animals tested; scMet at 300 mg/kg; (0/1); type: functional
Mus musculus [20] = experiment: Anticonvulsant activity in the subcutaneous metrazole (scMet) screen test expressed as the number of animals protected to the number of animals tested; scMet at 100 mg/kg after 0.5 hrs; (0/1); type: functional
Mus musculus [21] = experiment: Anticonvulsant activity in the maximal electroshock (MES) screen test expressed as the number of animals protected to the number of animals tested; MES at 300 mg/kg after 4 hrs; (1/1); type: functional
Mus musculus [22] = experiment: Anticonvulsant activity in the maximal electroshock (MES) screen test expressed as the number of animals protected to the number of animals tested; MES at 100 mg/kg after 0.5 hrs; (0/3); type: functional
Mus musculus [23] = experiment: Anticonvulsant activity in the maximal electroshock (MES) screen test expressed as the number of animals protected to the number of animals tested; MES at 100 mg/kg after 4 hrs; (1/3); type: functional
Mus musculus [24] = experiment: Anticonvulsant activity in the maximal electroshock (MES) screen test expressed as the number of animals protected to the number of animals tested; MES at 300 mg/kg after 0.5 hrs; (0/1); type: functional

- Kp [1]: 236
- IC50 (Cavia porcellus): 30.4 nM
Compound: CO/C(O)=C1\C(C)=NC(C)=C(C(=O)OCCO)C1c1cccc(Cl)c1Cl (stereo unspecified)
- No. of animals protected / no animals tested (Mus musculus [2]): 1
- No. of animals protected / no animals tested (Mus musculus [3]): 0
- No. of animals protected / no animals tested (Mus musculus [4]): 2

- Kp [1]: 366
- IC50 (Cavia porcellus): 31 nM
Compound: CO/C(O)=C1\C(C)=NC(C)=C(C(=O)OCCOC(=O)C2=CN(C)C=CC2)C1c1cccc(Cl)c1Cl (stereo unspecified)
- No. of animals protected / no animals tested (Mus musculus [5]): 0
- No. of animals protected / no animals tested (Mus musculus [6]): 0
- No. of animals protected / no animals tested (Mus musculus [7]): 0
- No. of animals protected / no animals tested (Mus musculus [8]): 0
- No. of animals protected / no animals tested (Mus musculus [9]): 0
- No. of animals protected / no animals tested (Mus musculus [10]): 1
- No. of animals protected / no animals tested (Mus musculus [11]): 0
- No. of animals protected / no animals tested (Mus musculus [12]): 1

- Kp [1]: 442
Compound: CCOC(=O)C1=C(C)NC(C)=C(C(=O)OC)C1c1cccc(Cl)c1Cl (stereo unspecified) [FELODIPINE]
- No. of animals protected / no animals tested (Mus musculus [13]): 0
- No. of animals protected / no animals tested (Mus musculus [14]): 2
- No. of animals protected / no animals tested (Mus musculus [15]): 2
- No. of animals protected / no animals tested (Mus musculus [16]): 1
- No. of animals protected / no animals tested (Mus musculus [17]): 0
- No. of animals protected / no animals tested (Mus musculus [18]): 0

- Kp [1]: 187
- IC50 (Cavia porcellus): 14.9 nM
Compound: COCCOC(=O)C1=C(C)NC(C)=C(C(=O)OC(C)C)C1c1cccc([N+](=O)[O-])c1 (stereo unspecified) [NIMODIPINE]
- No. of animals protected / no animals tested (Mus musculus [19]): 0 300mg kg-1
- No. of animals protected / no animals tested (Mus musculus [20]): 0 100mg kg-1
- No. of animals protected / no animals tested (Mus musculus [3]): 0 100mg kg-1
- No. of animals protected / no animals tested (Mus musculus [21]): 1 300mg kg-1
- No. of animals protected / no animals tested (Mus musculus [22]): 0 100mg kg-1
- No. of animals protected / no animals tested (Mus musculus [23]): 1 100mg kg-1
- No. of animals protected / no animals tested (Mus musculus [24]): 0 300mg kg-1
